Data: US6710049B2, “Azole compounds as anti-fungal agents” (Ranbaxy Laboratories Limited, priority 2000, dated 2004)
Converted amounts (≈) assume the structure as drawn. Like-named read-outs stand apart in the source and are kept apart here.

Assays:
[1] = test system: Mucor (Ceylon); assay: MFC determination (subculture on Sabouraud Dextrose Agar); type: cell-based
Outline: (§1)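 Broth microdilution per NCCLS M27A (yeasts) and M38P (Aspergillus), modified for dermatophytes and other filamentous fungi; RPMI 1640 buffered with MOPS to pH 7. MIC is the lowest concentration giving significant growth inhibition. Wells showing no growth are subcultured onto Sabouraud Dextrose Agar to give the MFC.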

[2] = test system: C parapsilosis 22019; assay: as above; type: cell-based
Outline: as §1

[3] = test system: P variotii 22319; assay: MIC determination (NCCLS broth method); type: cell-based, Paecillomyces variotii
Source text: (§2) The in-vitro evaluation of the antifungal activity of the compounds can be performed by determining the minimum inhibitory concentration (MIC) as shown in Table 1 which is the concentration of the test compound in Rosewell Park Memorial Institute (RPMI) 1640 liquid medium buffered with 3-(Morpholino)propanesulphonic acid (MOPS) to pH 7, at which there is significant inhibition of the particular fungi. In practice the National Committee for Clinical Laboratory Standard (NCCLS) M27A document for Candida and Cryptococcus and M38P for Aspergillus was used to determine the MIC against yeast and filamentous fungi with suitable modifications for dermatophytes to other filamentous fungi. Three quality control strains were included each time the MIC were determined and readings recorded only when the Quality Control results fell into the acceptable range. After MIC results had been recorded, 100 μl from each of the well showing no growth was spread over Sabouraud Dextrose Agar (SDA) to determine the minimum fungicidal concentration (MFC) as shown in Table 2.

[4] = test system: Aspergillus species; conditions: isolates of Aspergillus species; cited from earlier work
[5] = target: lanosterol 14α-de-methylase; conditions: the target enzyme in the fungus; cited from earlier work
[6] = test system: Penicilliuim 2306; assay: MIC determination (NCCLS broth method); type: cell-based, Penicillium
Source text: as §2

[7] = test system: P variotii 22319; assay: MFC determination (subculture on Sabouraud Dextrose Agar); type: cell-based, Paecillomyces variotii
Source text: as §2

[8] = test system: Penicillium spp. isolates; assay: Comparative in vitro MIC, isolate panel; type: cell-based
Source text: as §2
(§3) A comparative in vitro and in vivo biologically activity data of the compound of our invention, 2-{[1R,2R]-2-(2,4-Difluorophenyl)-2-hydroxy-1-methyl-3-(1H-1,2,4-triazole-1-yl)propyl}-4-[(2′,2′,3′,3′-tetrafluoropropoxyphenyl)-3-(2H,4H)-1,2,4-thiotriazolone (Compound No. 3) with 2-[(1R,2R)-2-(2,4-difluorophenyl)-2-hydroxy-1-methyl-3-(1H-1,2,4-triazol-1-yl)propyl]-4-(2′,2′,3′,3′-tetraflouropropoxyphenyl)-3(2H,4H)-1,2,4-triazolone (TAK 187) and standard antifungal pharmaceuticals is given below: […]

[9] = test system: All Candida isolates; assay: Comparative in vitro MIC, isolate panel; type: cell-based
Source text: as §2, §3

[10] = test system: Rhizoupus spp. isolates; assay: Comparative in vitro MIC, isolate panel; type: cell-based
Source text: as §2, §3

[11] = test system: All Filamentous isolates; assay: Comparative in vitro MIC, isolate panel; type: cell-based
Source text: as §2, §3

[12] = test system: Aspergillus fumigatus isolates; assay: Comparative in vitro MIC, isolate panel; type: cell-based
Source text: as §2, §3

[13] = test system: All fungal pathogens; assay: Comparative in vitro MIC, isolate panel; type: cell-based
Source text: as §2, §3

[14] = test system: Fusarium spp. isolates; assay: Comparative in vitro MIC, isolate panel; type: cell-based
Source text: as §2, §3

[15] = test system: T. mentagrophyte; assay: Activity against dermatophytes; type: cell-based; set-up: unit not given here
Source text: as §2, §3

[16] = test system: T. rubrum; assay: Activity against dermatophytes; type: cell-based; set-up: unit not given here
Source text: as §2, §3

[17] = test system: C neoformans I; assay: MIC determination (NCCLS broth method); type: cell-based, Cryptococcus neoformans
Source text: as §2

[18] = test system: C neoformans M-106; assay: MIC determination (NCCLS broth method); type: cell-based, Cryptococcus neoformans
Source text: as §2

[19] = test system: A fumigatus SI-1 - 1019; assay: MFC determination (subculture on Sabouraud Dextrose Agar); type: cell-based, Aspergillus fumigatus
Source text: as §2

[20] = test system: A fumigatus 1008; assay: as above; type: cell-based, Aspergillus fumigatus
Source text: as §2

[21] = test system: A fumigatus SI-1 - 1019; assay: MIC determination (NCCLS broth method); type: cell-based, Aspergillus fumigatus
Source text: as §2

[22] = test system: A fumigatus I - 1011; assay: MIC determination (NCCLS broth method); type: cell-based, Aspergillus fumigatus
Source text: as §2

[23] = test system: A fumigatus L - 1034; assay: MIC determination (NCCLS broth method); type: cell-based, Aspergillus fumigatus
Source text: as §2

[24] = test system: A fumigatus J - 1032; assay: MIC determination (NCCLS broth method); type: cell-based, Aspergillus fumigatus
Source text: as §2

[25] = test system: A fumigatus PGI - 1023; assay: MIC determination (NCCLS broth method); type: cell-based, Aspergillus fumigatus
Source text: as §2

[26] = test system: A fumigatus K - 1033; assay: MIC determination (NCCLS broth method); type: cell-based, Aspergillus fumigatus
Source text: as §2

[27] = test system: A fumigatus 1008; assay: MIC determination (NCCLS broth method); type: cell-based, Aspergillus fumigatus
Source text: as §2

[28] = test system: A fumigatus II - 1012; assay: MIC determination (NCCLS broth method); type: cell-based, Aspergillus fumigatus
Source text: as §2

[29] = test system: Aspergillus fumigatous; assay: In vivo anti-fungal activity, ED50 in systemically infected mice; set-up: species or system Swiss albino mice; conditions: mice infected i.v. with Aspergillus fumigatous, dosing for five days
Experimental: The in-vivo evaluation of the compound can be carried out at a series of dose levels by oral or I. V. injection to mice which are inoculated I.V. with the minimum lethal dose of Candida albicans, Cryptococcus neoformans or Aspergillus fumigatus by the tail vein. Activity is based on the survival of a treated group of mice after the death of an untreated group of mice. For Aspergillus and Cryptococcus infections, target organs were cultured after treatment to document the number of mice cured of the infection for further assessment of activity.
Method: Briefly, Swiss albino mice weighing 20±2 G were injected intravenously (tail vein) with sufficient fungal cells to kill 100% of the untreated animals for Aspergillus fumigatous strain used. In all cases each group comprised of six mice. Five does levels, utilizing doubling dilution range, were employed per determination ranging from 25 to 1.56 mg/kg BW. Dosing was carried out for five days starting after 30 minutes of infection. […] Treated animals were monitored twice daily for 14 days post infection at which time the experiment was terminated and ED50 was calculated.

[30] = read-out: Minimum Fungicidal Concentration (MFC)

OC(Cn1cncn1)(Cn1cncn1)c1ccc(F)cc1F [Fluconazole]
MFC [1, 30]: > 128 mg/L | MFC [2, 30]: 4 mg/L (≈ 13.1 µM) | MIC ([3]; read-out: Minimum Inhibitory Concentration (MIC)): > 128 mg/L | minimum inhibitory concentration (MIC) values [4]: 400 mg/L (≈ 1310 µM) | IC50 [5]: 4.8 µM | MIC ([6]; Penicillium, read-out: Minimum Inhibitory Concentration (MIC)): > 128 mg/L | MFC [7, 30]: > 128 mg/L | MIC [8]: 174 mg/L (≈ 569 µM) | MIC50 ([8]; read-out: MIC50): 256 mg/L (≈ 836 µM) | MIC90 ([8]; read-out: MIC90): 256 mg/L (≈ 836 µM) | MIC [9]: 5.3 mg/L (≈ 17.3 µM) | MIC50 ([9]; read-out: MIC50): 8 mg/L (≈ 26.1 µM) | MIC90 ([9]; read-out: MIC90): 128 mg/L (≈ 418 µM) | MIC [10]: 256 mg/L (≈ 836 µM) | MIC50 ([10]; read-out: MIC50): 256 mg/L (≈ 836 µM) | MIC90 ([10]; read-out: MIC90): 256 mg/L (≈ 836 µM) | MIC [11]: 199 mg/L (≈ 650 µM) | MIC [12]: 256 mg/L (≈ 836 µM) | MIC50 ([12]; read-out: MIC50): 256 mg/L (≈ 836 µM) | MIC90 ([12]; read-out: MIC90): 256 mg/L (≈ 836 µM) | MIC [13]: 105 mg/L (≈ 343 µM) | MIC [14]: 256 mg/L (≈ 836 µM) | MIC50 ([14]; read-out: MIC50): 256 mg/L (≈ 836 µM) | MIC90 ([14]; read-out: MIC90): 256 mg/L (≈ 836 µM) | Activity against dermatophytes [15]: >128 | Activity against dermatophytes [16]: >128 | MIC ([17]; Cryptococcus neoformans, read-out: Minimum Inhibitory Concentration (MIC)): 1 mg/L (≈ 3.27 µM) | MIC ([18]; Cryptococcus neoformans, M106, read-out: Minimum Inhibitory Concentration (MIC)): 4 mg/L (≈ 13.1 µM) | MFC ([19]; Aspergillus fumigatus, SI11019, read-out: Minimum Fungicidal Concentration (MFC)): > 128 mg/L | MFC ([20]; Aspergillus fumigatus, read-out: Minimum Fungicidal Concentration (MFC)): > 128 mg/L | MIC ([21]; Aspergillus fumigatus, SI11019, read-out: Minimum Inhibitory Concentration (MIC)): > 128 mg/L | MIC ([22]; Aspergillus fumigatus, I1011, read-out: Minimum Inhibitory Concentration (MIC)): > 128 mg/L | MIC ([23]; Aspergillus fumigatus, L1034, read-out: Minimum Inhibitory Concentration (MIC)): > 128 mg/L | MIC ([24]; Aspergillus fumigatus, J1032, read-out: Minimum Inhibitory Concentration (MIC)): > 128 mg/L | MIC ([25]; Aspergillus fumigatus, PGI1023, read-out: Minimum Inhibitory Concentration (MIC)): > 128 mg/L | MIC ([26]; Aspergillus fumigatus, K1033, read-out: Minimum Inhibitory Concentration (MIC)): > 128 mg/L | MIC ([27]; Aspergillus fumigatus, read-out: Minimum Inhibitory Concentration (MIC)): > 128 mg/L | MIC ([28]; Aspergillus fumigatus, II1012, read-out: Minimum Inhibitory Concentration (MIC)): > 128 mg/L

C[C@@H](n1ncn(-c2ccc(OCC(F)(F)C(F)F)cc2)c1=O)[C@](O)(Cn1cncn1)c1ccc(F)cc1F [TAK 187, 2-[(1R,2R)-2-(2,4-difluorophenyl)-2-hydroxy-1-methyl-3-(1H-1,2,4-triazol-1-yl)propyl]-4-(2′,2′,3′,3′-tetraflouropropoxyphenyl)-3(2H,4H)-1,2,4-triazolone]
Minimum Fungicidal Concentration (MFC) [1]: >128 mg/L | Minimum Fungicidal Concentration (MFC) [2]: 0.03 mg/L | Minimum Inhibitory Concentration (MIC) [3]: 0.25 mg/L | Minimum Inhibitory Concentration (MIC) [6]: 8 mg/L | ED50 ([29]; Day 7 post infection): 10.08 mg/kg body weight | ED50 ([29]; Day 14 post infection): 20.39 mg/kg body weight | Minimum Fungicidal Concentration (MFC) [7]: 32 mg/L | MIC50 [8]: 16 mg/L (≈ 29.5 µM) | MIC90 [8]: 64 mg/L (≈ 118 µM) | MIC G.M. [8]: 18.664 mg/L (≈ 34.4 µM) | MIC50 [9]: 0.5 mg/L (≈ 0.922 µM) | MIC90 [9]: 2 mg/L (≈ 3.69 µM) | MIC G.M. [9]: 0.45 mg/L (≈ 0.83 µM) | MIC50 [10]: 4 mg/L (≈ 7.37 µM) | MIC90 [10]: 4 mg/L (≈ 7.37 µM) | MIC G.M. [10]: 4 mg/L (≈ 7.37 µM) | MIC50 [11]: 8 mg/L (≈ 14.7 µM) | MIC90 [11]: 32 mg/L (≈ 59 µM) | MIC G.M. [11]: 7.246 mg/L (≈ 13.4 µM) | MIC50 [12]: 8 mg/L (≈ 14.7 µM) | MIC90 [12]: 8 mg/L (≈ 14.7 µM) | MIC G.M. [12]: 7.4 mg/L (≈ 13.6 µM) | MIC50 [13]: 8 mg/L (≈ 14.7 µM) | MIC90 [13]: 32 mg/L (≈ 59 µM) | MIC G.M. [13]: 4.16 mg/L (≈ 7.67 µM) | MIC50 [14]: 32 mg/L (≈ 59 µM) | MIC90 [14]: 64 mg/L (≈ 118 µM) | MIC G.M. [14]: 45.255 mg/L (≈ 83.4 µM) | Minimum Inhibitory Concentration (MIC) [17]: 0.03 mg/L | Minimum Inhibitory Concentration (MIC) [18]: 0.06 mg/L | Minimum Fungicidal Concentration (MFC) [19]: 32 mg/L | Minimum Fungicidal Concentration (MFC) [20]: 8 mg/L | Minimum Inhibitory Concentration (MIC) [21]: 2 mg/L | Minimum Inhibitory Concentration (MIC) [22]: 4 mg/L | Minimum Inhibitory Concentration (MIC) [23]: 4 mg/L | Minimum Inhibitory Concentration (MIC) [24]: 4 mg/L | Minimum Inhibitory Concentration (MIC) [25]: 8 mg/L | Minimum Inhibitory Concentration (MIC) [26]: 8 mg/L | Minimum Inhibitory Concentration (MIC) [27]: 4 mg/L | Minimum Inhibitory Concentration (MIC) [28]: 8 mg/L
